{
  "source": "patent US20070142462A1",
  "about": "“Method of Treating Cancer” (The University of Utah, priority 2000, published 2007)",
  "key": {"[1]": {"system": "NF-κB", "assay": "EMSA of constitutive nuclear NF-κB DNA binding, M1585", "format": "cell-based, human", "settings": "M1585 melanoma; catalase 3,000 U/ml for 24 hours", "protocol": "The effect of antioxidants on nuclear activation of NF-κB was studied by incubating near confluent (70%) cell cultures with antioxidant treatments for 1-48 hours. Nuclear protein was harvested, and EMSAs were performed using DNA consensus binding sequences, or nuclear translocation of the p65 component of NF-κB was studied by immunoperoxidase staining, as outlined below.\nElectrophoretic Mobility Shift Assays (EMSAs). Nuclear protein was isolated and DNA binding reactions were performed as previously described in detail, Kennedy et al., Am. J. Respir. Cell Mol. Biol. 19:366-378 (1998). Monolayers were washed twice in cold DPBS and equilibrated 10 min on ice with 0.7 ml cold cytoplasmic extraction buffer, CEB (10 mM Tris, pH 7.9, 60 mM KCl, 1 mM EDTA, 1 mM DTT) with protease inhibitors, PI (1 mM Pefabloc, 50 μg/ml antipain, 1 μg/ml leupeptin, 1 μg/ml pepstatin, 40 μg/ml bestatin, 3 μg/ml E-64 and 100 μg/ml chymostatin). […] DNA-protein binding reactions were performed with 2 μg of nuclear protein (as determined by the Pierce method) and 30-80,000 cpm of ^32P-end-labelled double-stranded DNA probe in 10 mM Tris-HCl, pH 7.5, 50 mM NaCl, 0.5 mM EDTA, 0.5 mM DTT, 1 mM MgCl2, 50 μg/ml poly dI-dC, and 4% glycerol. […] Gels were dried and analyzed by autoradiography at −80° C. using an image intensifier screen. […]"}, "[2]": {"system": "cyclin B1 and p34-cdc2 kinase", "assay": "Immunoblot of cyclins, cyclin-associated kinases, inhibitors, p53", "format": "cell-based, human", "settings": "M1619", "protocol": "The effect of antioxidants on expression of cell cyclins, cyclin-associated kinases, cell cycle inhibitors and IκBα was studied by incubating near confluent cell cultures with antioxidant treatments for 15 min-48 hours. Cells were lysed and protein levels were measured by immunoblot assay as described below. In other experiments, the ratio of phosphorylated-IκBα to total IκBα was determined by harvest of cytosolic protein 24 hours after treating cultures with 3,000 U/ml catalase.\nImmunoassay for Proteins. Cells were lysed and proteins were isolated and quantitated by immunoassay as previously detailed, using 2 μg/ml of primary rabbit polyclonal antibodies against human p53, the cyclins D1, E, A and B1, the cyclin-associated kinases cdk2 and cdc2, the cyclin kinase inhibitors p21^WAF1/Cip1 and p27, and peroxidase-labeled donkey polyclonal anti-rabbit IgG. […] Cells were placed on ice, washed twice with cold DPBS, scraped into 0.5 ml boiling buffer (10% [vol/vol] glycerol and 2% [wt/vol] sodium dodecyl sulfate [SDS] in 83 mM Tris, pH 6.8) and sheared by four passages through a pipette. Aliquots were removed for protein determination, using the BCA protein assay (Pierce). […] Immunoblots were rinsed again as above and detected using an enhanced chemiluminescence method (ECL Western blotting detection system, Amersham Life Science, Buckinghamshire, England) and autoradiography. […]"}},
  "data": [
    {"substance": "Catalase", "values": [
      {"measurement": "constitutive nuclear DNA binding activity for NF-κB", "setting": "[1]", "value": "suppressed"},
      {"measurement": "expression of cyclin B1 and its associated kinase p34-cdc2", "setting": "[2]; 3,000 U/ml catalase", "value": "significant decrease"},
      {"measurement": "protein levels of cyclins D1, E, A, cdk2, p53, p21WAF1/Cip1, p27", "setting": "[2]; catalase-treated vs controls, data not shown", "value": "did not decrease"}
    ]}
  ]
}
